Data on ten molecules can be found in patent US20080255155A1, “KINASE INHIBITORS AND USES THEREOF” (priority 2006, published 2008).

The structures appear in SMILES notation. A value given as a limit tells only on which side of the number the result lay.

One test has as its system A549. The test is described as follows: A549 wound healing inhibition. The settings on record: Homo sapiens; A549 cells; read-out: Potency in cell-based assays A549 wound healing inhibition.
The test system of the next test is DU145. Nature of the test: DU145 scattering inhibition. The note with it: Homo sapiens, DU-145; DU145 cells; read-out: Potency in cell-based assays DU145 scattering inhibition.
The target of test [1] is T1, recombinant human c-Met/HGF receptor (Homo sapiens, UniProt P08581).
T1 construct: His tag; made in house; host or cells: Hi-5 cells (Trichoplusia ni), recombinant baculovirus
T1 sequence (P08581 1078-1337): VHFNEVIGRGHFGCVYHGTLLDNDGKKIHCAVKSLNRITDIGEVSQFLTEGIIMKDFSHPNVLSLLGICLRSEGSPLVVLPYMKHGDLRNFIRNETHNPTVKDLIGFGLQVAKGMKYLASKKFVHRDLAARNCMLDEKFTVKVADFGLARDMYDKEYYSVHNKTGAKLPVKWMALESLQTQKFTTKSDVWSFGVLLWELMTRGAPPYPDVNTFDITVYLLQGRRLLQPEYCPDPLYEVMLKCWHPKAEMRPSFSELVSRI
Nature of the test: In vitro receptor tyrosine kinase assay, c-Met (DELFIA). Format: biochemical. The note with it: ATP 10 uM, enzyme 25 nM; read-out: Potency in enzyme assays Cmet. The source says: (§1) These tests measure the ability of compounds to inhibit the enzymatic activity of recombinant human c-Met/HGF receptor and VEGF receptor enzymatic activity.
A 1.3-kb cDNA corresponding to the intracellular domain of c-Met or c-Met IC (Genbank accession number NP000236-1 amino acid […]) is cloned into the BamHI/XhoI sites of the pBlueBacHis2A vector (Invitrogen) for the production of a histidine-tagged version of that enzyme. This construct is used to generate recombinant baculovirus using the Bac-N-Blue™ system according to the manufacturer's instructions (Invitrogen).
The c-Met IC protein is expressed in Hi-5 cells (Trichoplusia Ni) upon infection with recombinant baculovirus construct. Briefly, Hi-5 cells grown in suspension and maintained in serum-free medium (Sf900 II supplemented with gentamycin) at a cell density of about 2×10^6 cells/ml are infected with the above-mentioned viruses at a multiplicity of infection (MOI) of 0.2 during 72 hours at 27° C. with agitation at 120 rpm on a rotary shaker. Infected cells are harvested by centrifugation at 398 g for 15 min. Cell pellets are frozen at −80° C. until purification is performed.
All steps described in cell extraction and purification are performed at 4° C. Frozen Hi-5 cell pellets infected with the C-Met IC recombinant baculovirus are thawed and gently resuspended in Buffer A (20 mM Tris pH 8.0, 10% glycerol, 1 μg/ml pepstatin, 2 μg/ml Aprotinin and leupeptin, 50 μg/ml PMSF, 50 μg/ml TLCK and 10 μM E64, 0.5 mM DTT and 1 mM Levamisole) using 3 ml of buffer per gram of cells. The suspension is Dounce homogenized after which it is centrifuged at 22500 g, 30 min., 4° C. The supernatant (cell extract) is used as starting material for purification of c-Met IC.
The supernatant is loaded onto a QsepharoseFF column (Amersham Biosciences) equilibrated with Buffer B (20 mM Tris pH 8.0, 10% glycerol) supplemented with 0.05M NaCl. Following a ten column volume (CV) wash with equilibration buffer, bound proteins are eluted with a 5 CV salt linear gradient spanning from 0.05 to 1M NaCl in Buffer B. Typically, the conductivity of selected fractions rank between 6.5 and 37 mS/cm. This Qsepharose eluate has an estimated NaCl concentration of 0.33M and is supplemented with a 5M NaCl solution in order to increase NaCl concentration at 0.5M and also with a 5M Imidazole (pH 8.0) solution to achieve a final imidazole concentration of 15 mM. This material is loaded onto a HisTrap affinity column (GE Healthcare) equilibrated with Buffer C (50 mM NaPO4 pH 8.0, 0.5M NaCl, 10% glycerol) supplemented with 15 mM imidazole. After a 10 CV wash with equilibration buffer and an 8 CV wash with buffer C+40 mM imidazole, bound proteins are eluted with an 8 CV linear gradient (15 to 500 mM) of imidazole in buffer C. C-Met IC enriched fractions from this chromatography step are pooled based on SDS-PAGE analysis. This pool of enzyme undergoes buffer exchange using PD-10 column (GE Healthcare) against buffer D (25 mM HEPES pH 7.5, 0.1M NaCl, 10% glycerol and 2 mM β-mercaptoethanol). Final C-Met IC protein preparations concentrations are about 0.5 mg/ml with purity approximating 80%. Purified c-Met IC protein stocks are supplemented with BSA at 1 mg/ml, aliquoted and frozen at −80° C. prior to use in enzymatic assay.
Inhibition of c-Met/HGF receptor and VEGFR/KDR is measured in a DELFIA™ assay (Perkin Elmer). The substrate poly(Glu4,Tyr) is immobilized onto black high-binding polystyrene 96-well plates. The coated plates are washed and stored at 4° C. During the assay, enzymes are pre-incubated with inhibitor and Mg-ATP on ice in polypropylene 96-well plates for 4 minutes, and then transferred to the coated plates. The subsequent kinase reaction takes place at 30° C. for 10-30 minutes. ATP concentrations in the assay are 10 uM for C-Met (5× the Km) and 0.6 uM for VEGFR/KDR (2× the Km). Enzyme concentration is 25 nM (C-Met) or 5 nM (VEGFR/KDR). […]

The target of another test is T2, VEGF receptor KDR (Homo sapiens, UniProt P35968).
T2 construct: made in house; host or cells: Sf9 cells (Spodoptera frugiperda), recombinant baculovirus
T2 sequence (P35968 806-1356): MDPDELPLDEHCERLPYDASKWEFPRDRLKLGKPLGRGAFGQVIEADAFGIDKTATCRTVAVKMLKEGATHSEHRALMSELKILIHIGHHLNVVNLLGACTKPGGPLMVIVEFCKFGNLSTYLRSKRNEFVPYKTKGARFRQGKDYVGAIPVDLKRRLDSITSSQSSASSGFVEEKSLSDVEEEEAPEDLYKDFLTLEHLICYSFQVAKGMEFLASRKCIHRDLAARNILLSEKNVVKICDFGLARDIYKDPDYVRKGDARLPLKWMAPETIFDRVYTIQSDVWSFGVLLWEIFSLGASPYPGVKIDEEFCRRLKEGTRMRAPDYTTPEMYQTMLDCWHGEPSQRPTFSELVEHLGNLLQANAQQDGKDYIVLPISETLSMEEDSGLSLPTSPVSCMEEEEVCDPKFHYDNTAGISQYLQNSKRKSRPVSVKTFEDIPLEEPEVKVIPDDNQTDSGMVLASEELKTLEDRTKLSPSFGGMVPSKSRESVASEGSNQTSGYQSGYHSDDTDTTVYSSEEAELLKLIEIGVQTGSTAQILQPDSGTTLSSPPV
The test is described as follows: In vitro receptor tyrosine kinase assay, VEGF receptor KDR (DELFIA). It counts as biochemical. The settings on record: ATP 0.6 uM, enzyme 5 nM; read-out: Potency in enzyme assays VEGF.
Text: as §1
In the case of VEGF receptor KDR a 1.6-kb cDNA corresponding to the catalytic domain of VEGFR2 or KDR (Genbank accession number AF035121 amino acid 806 to 1356) is cloned into the Pst I site of the pDEST20 Gateway vector (Invitrogen) for the production of a GST-tagged version of that enzyme. This construct is used to generate recombinant baculovirus using the Bac-to-Bac system according to the manufacturer's instructions (Invitrogen).
The GST-VEGFR2806-1356 protein is expressed in Sf9 cells (Spodoptera frugiperda) upon infection with recombinant baculovirus construct. Briefly, Sf9 cells grown in suspension and maintained in serum-free medium (Sf900 II supplemented with gentamycin) at a cell density of about 2×10^6 cells/ml are infected with the above-mentioned viruses at a multiplicity of infection (MOI) of 0.1 during 72 hours at 27° C. with agitation at 120 rpm on a rotary shaker. Infected cells are harvested by centrifugation at 398 g for 15 min. Cell pellets are frozen at −80° C. until purification is performed.
All steps described in cell extraction and purification are performed at 4° C. Frozen Sf9 cell pellets infected with the GST-VEGFR2806-1356 recombinant baculovirus re thawed and gently resuspended in Buffer A (PBS pH 7.3 supplemented with 1 μg/ml pepstatin, 2 μg/ml Aprotinin and leupeptin, 50 μg/ml PMSF, 50 μg/ml TLCK and 10 μM E64 and 0.5 mM DTT) using 3 ml of buffer per gram of cells. Suspension is Dounce homogenized and 1% Triton X-100 is added to the homogenate after which it is centrifuged at 22500 g, 30 min., 4° C. The supernatant (cell extract) is used as starting material for purification of GST-VEGFR2806-1356.
The supernatant is loaded onto a GST-agarose column (Sigma) equilibrated with PBS pH 7.3. Following a four column volume (CV) wash with PBS pH 7.3+1% Triton X-100 and 4 CV wash with buffer B (50 mM Tris pH 8.0, 20% glycerol and 100 mM NaCl), bound proteins are step eluted with 5 CV of buffer B supplemented with 5 mM DTT and 15 mM glutathion. GST-VEGFR2806-1356 enriched fractions from this chromatography step are pooled based on U.V. trace i.e. fractions with high O.D^-280- Final GST-VEGFR2806-1356 protein preparations concentrations are about 0.7 mg/ml with purity approximating 70%. Purified GST-VEGFR2806-1356 protein stocks are aliquoted and frozen at −80° C. prior to use in enzymatic assay.
Inhibition of c-Met/HGF receptor and VEGFR/KDR is measured in a DELFIA™ assay (Perkin Elmer). The substrate poly(Glu4,Tyr) is immobilized onto black high-binding polystyrene 96-well plates. The coated plates are washed and stored at 4° C. During the assay, enzymes are pre-incubated with inhibitor and Mg-ATP on ice in polypropylene 96-well plates for 4 minutes, and then transferred to the coated plates. The subsequent kinase reaction takes place at 30° C. for 10-30 minutes. ATP concentrations in the assay are 10 uM for C-Met (5× the Km) and 0.6 uM for VEGFR/KDR (2× the Km). Enzyme concentration is 25 nM (C-Met) or 5 nM (VEGFR/KDR). After incubation, the kinase reactions are quenched with EDTA and the plates are washed. Phosphorylated product is detected by incubation with Europium-labeled anti-phosphotyrosine MoAb. After washing the plates, bound MoAb is detected by time-resolved fluorescence in a Gemini SpectraMax reader (Molecular Devices). Compounds are evaluated over a range of concentrations and IC50's (concentration of compounds giving 50% inhibition of enzymatic activity) are determined.

Regarding `O=C(Nc1ccc(Oc2ccnc(Nc3ccccc3)n2)c(F)c1)N1CCN(c2ccccc2)C1=O` [Compound 61a, N-(3-fluoro-4-(2-(phenylamino)pyrimidin-4-yloxy)phenyl)-2-oxo-3-phenyl-imidazolidine-1-carboxamide], the IC50 was 5 to 10 µM in the test on A549, above 10 µM in the test with DU145, 0.5 to 1 µM in test [1] and at least 1 µM at VEGF receptor KDR.
On to `O=C(Nc1cc(Oc2ccc(NC(=O)N3CCN(c4ccccc4)C3=O)cc2F)ccn1)N1CCCC1` [Compound 18a, N-(3-Fluoro-4-(2-(pyrrolidine-1-carboxamido)pyridin-4-yloxy)phenyl)-2-oxo-3-phenylimidazolidine-1-carboxamide], for which the IC50 was at least 1 µM with A549, at least 1 µM in the test with DU145, below 0.25 µM in test [1] and 0.25 to 0.5 µM on VEGF receptor KDR.
Regarding `CNC(=O)c1cc(Oc2ccc(NC(=O)N3CCN(c4ccc(F)cc4)C3=O)cc2F)ccn1` [Compound 87b, 4-(2-fluoro-4-(3-(4-fluorophenyl)-2-oxoimidazolidine-1-carboxamido)phenoxy)-N-methylpicolinamide], the IC50 with A549 is 1 to 5 µM; in the test with DU145, 1 to 5 µM; in test [1], 0.5 to 1 µM; at VEGF receptor KDR, at least 1 µM.
For the molecule `O=C(CC(Nc1ccc(Oc2cc(NC(=O)N3CCCC3)ncn2)c(F)c1)C(F)(F)F)Nc1ccccc1` (centres unmarked) [Compound 13, N-(6-(2-Fluoro-4-(1,1,1-trifluoro-4-oxo-4-(phenylamino)butan-2-ylamino)phenoxy)pyrimidin-4-yl)pyrrolidine-1-carboxamide], the IC50 in the test on A549 was 5 to 10 µM; in the test on DU145 it was 5 to 10 µM; in test [1] it was at least 1 µM; on VEGF receptor KDR, below 0.25 µM.
With `O=C(Nc1ccc(Oc2ccnc(Nc3ccccc3)c2)c(F)c1)N1CCN(c2ccccc2)C1=O` [Compound 70, N-(3-fluoro-4-(2-(phenylamino)pyridin-4-yloxy)phenyl)-2-oxo-3-phenylimidazolidine-1-carboxamide], the IC50 in the test on A549 is 1 to 5 µM; with DU145 it was 5 to 10 µM; in test [1] it was below 0.25 µM; on VEGF receptor KDR, at least 1 µM.
For `CN(C)CCCNC(=O)Nc1cc(Oc2ccc(NC(=O)N3CCN(c4ccccc4)C3=O)cc2F)ccn1` [Compound 18c, N-(4-(2-(3-(3-(dimethylamino)propyl)ureido)pyridin-4-yloxy)-3-fluorophenyl)-2-oxo-3-phenylimidazolidine-1-carboxamide], in that order: 1 to 5 µM, at least 1 µM, 0.5 to 1 µM and at least 1 µM.
For the molecule `CN(C)CCOC(=O)Nc1cc(Oc2ccc(NC(=O)N3CCN(c4ccccc4)C3=O)cc2F)ccn1` [Compound 18d, 2-(dimethylamino)ethyl4-(2-fluoro-4-(2-oxo-3-phenylimidazolidine-1-carboxamido)phenoxy)pyridin-2-ylcarbamate], the IC50 is above 10 µM in the test on A549, above 10 µM with DU145, 0.25 to 0.5 µM in test [1] and at least 1 µM on VEGF receptor KDR.
On to `COc1ccc(Nc2nccc(Oc3ccc(NC(=O)N4CCN(c5ccccc5)C4=O)cc3F)n2)cc1` [Compound 61b, N-(3-fluoro-4-(2-(4-methoxyphenylamino)pyrimidin-4-yloxy)phenyl)-2-oxo-3-phenylimidazolidine-1-carboxamide], for which the IC50 is 5 to 10 µM in the test with A549, 5 to 10 µM with DU145, 0.5 to 1 µM in test [1] and at least 1 µM on VEGF receptor KDR.
Take `O=C(Nc1cc(Oc2ccc(NC(=O)N3CCN(c4ccccc4)C3=O)cc2F)ncn1)N1CCCC1` [Compound 9c, N-(3-Fluoro-4-(6-(pyrrolidine-1-carboxamido)pyrimidin-4-yloxy)phenyl)-2-oxo-3-phenylimidazolidine-1-carboxamide]: the IC50 with A549 is 1 to 5 µM; in the test with DU145, 5 to 10 µM; in test [1], below 0.25 µM; at VEGF receptor KDR it was below 0.25 µM.
Take `O=C(NCCN1CCOCC1)c1cc(Oc2ccc(NC(=O)N3CCN(c4ccc(F)cc4)C3=O)cc2F)ccn1` [Compound 87d, 4-(2-fluoro-4-(3-(4-fluorophenyl)-2-oxoimidazolidine-1-carboxamido)phenoxy)-N-(2-morpholinoethyl)picolinamide]: the IC50 in test [1] was at least 1 µM; on VEGF receptor KDR, above 1 µM.
